Here are results for 23 compounds from patent US11059778B2, “Cannabinoid receptor CB2 ligand 4-(aminomethyl)-N, N-dialkylanilines” (UNIVERSITY OF PITTSBURGH—OF THE COMMONWEALTH SYSTEM OF …, priority 2015, dated 2021).

One test deals with T1, human CB1 receptors (Homo sapiens, UniProt P21554).
T1 construct: expressed in transfected cells
Put plainly: [3H]CP-55,940 radioligand competition binding assay, CB1. The conditions noted are these: CHO cell membranes, [3H]CP-55,940 displacement. The method, then: (§1) Binding assay. The bioassay is carried out using the Perkin Elmer 96-well Top Counter. This bioassay is also known as a competition binding assay and the biological evaluation is to determine the CB receptor binding affinity (Ki) of the screened ligands by displacing [^3H]-CP-55940 (or other radioligands). The brief procedure is given below.
(§2) Perkin Elmer 96-well TopCounter is used at PMLSC and in our laboratory to determine the CB receptor binding affinity (Ki) of the in-silico screened ligands by displacing [^3H]-CP-55,940 (or other radioligands). In competition binding experiments, the tested compound dilutions are carried out in triplicate in TME buffer (25 mM Tris, 5 mM MgCl2, 1 mM EDTA) containing 0.1% (w/v) fatty acid free bovine serum albumin (BSA), pH 7.4. Various concentrations of the tested compound are added in the same volume to 0.5 nM [^3H]CP-55,940. TME buffer and cell membrane preparations expressing CB receptors (2.5 μg per well) are added to a final volume of 200 μL. For the saturation binding experiments, varying concentrations of [^3H]CP-55,940 (0.05-1.5 nM) with or without 2 μM of unlabeled ligands (CP-55,940 or WIN-55,212-2) are incubated with the receptor membrane preparations to determine Kd and nonspecific binding. After the binding suspensions are incubated at 30° C. for 1 hr, the reaction is terminated by rapid filtration through microfiltration plates coated with 0.5% polyethylenimine (Unifilter GF/B filterplate, PerkinElmer) followed by 5 washes with ice cold TME buffer containing 0.5% BSA on a Packard Filtermate Harvester (PerkinElmer). The plates are then dried overnight and 30 μl MicroScint 0 scintillation cocktail are added to each well of the dried filter plates. Then the bound radioactivity is counted using a Perkin Elmer 96-well TopCounter. The Ki is calculated by using nonlinear regression analysis (Prism 5; GraphPad Software Inc., San Diego, Calif.), with the Kd values for [^3H]CP-55,940 determined from saturation binding experiments. This assay is used for determining binding affinity parameters (Ki) of ligand-receptor interactions for the CB receptor.
(§3) The affinities of the synthesized ligands were determined in radioligand binding studies at human CB1 and CB2 receptors using [3H](—)-cis-3-[2-hydroxy-4-(1,1 dimethylheptyl)phenyl]-trans-4-(3-hydroxypropyl) cyclohexanol (CP55,940) as a CB receptor radioligand. As a source for human CB1 and CB2 receptors, membrane preparations of Chinese hamster ovary (CHO) cells stably expressing the respective receptor subtype were utilized (50 μg of protein/vial). CB2 selective ligand SR144528 (CB2 inverse agonist) and CB1 ligand SR141716 (CB1 inverse agonist) were used as positive controls, respectively, along with the tested compounds in bioassays experiments. Only compounds with high CB2 receptor binding potency was chosen to carry out the CB1 binding assay. CB ligand competition binding assay was carried out as described previously in Gertsch, J., et al., Beta-caryophyllene is a dietary cannabinoid. Proc Natl Acad Sci USA 2008, 105 (26), 9099-104. Briefly, non-radioactive (or cold) ligands (synthesized derivatives and reference ligands) were diluted in a binding buffer (50 mM Tris-HCl (pH 7.4), 5 mM MgC12, 2.5 mM EGTA, and 0.1% (w/v) fatty acid free BSA), supplemented with 10% dimethyl sulfoxide and 0.4% methyl cellulose. Each assay plate well contained a total of 200 μL of reaction mixture composed of 5 μg of CB1 (or 2.5 μg CB2) membrane protein, labeled [3H]-CP-55,940 ligand at a final concentration of 2.5 nM, and the unlabeled ligand at its varying dilutions as stated above. Plates were incubated at 30° C. for 1 hour with gentle shaking.
(§4) The reaction was terminated by rapid filtration through Unifilter GF/B filter plates using a Unifilter Cell Harvester (PerkinElmer). After the plate was allowed to dry overnight, 30 μL MicroScint-0 cocktail (PerkinElmer) was added to each well, and the radioactivity was counted using a PerkinElmer TopCounter. […]

A further test has as its target T2, human CB2 receptors (Homo sapiens, UniProt P34972).
T2 construct: expressed in transfected cells
Nature of the test: [3H]CP-55,940 radioligand competition binding assay, CB2. The conditions noted are these: for Ki: CHO cell membranes, [3H]CP-55,940 displacement. The protocol: as §1, §2, §3, §4
A general note: In a radioligand displacement assay an active substance lowers the binding of a labelled ligand.

T2 sequence (P34972 whole entry): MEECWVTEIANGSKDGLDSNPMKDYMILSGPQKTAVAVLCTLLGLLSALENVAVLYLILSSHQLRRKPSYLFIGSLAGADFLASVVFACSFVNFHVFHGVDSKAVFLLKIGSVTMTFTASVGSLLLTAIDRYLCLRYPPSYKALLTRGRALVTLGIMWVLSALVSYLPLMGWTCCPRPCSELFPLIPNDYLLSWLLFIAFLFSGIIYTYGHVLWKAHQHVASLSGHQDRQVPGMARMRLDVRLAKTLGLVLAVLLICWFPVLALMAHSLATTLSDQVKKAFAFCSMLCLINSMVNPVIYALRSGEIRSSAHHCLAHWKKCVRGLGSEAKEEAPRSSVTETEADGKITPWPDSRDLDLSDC
T1 sequence (P21554 whole entry): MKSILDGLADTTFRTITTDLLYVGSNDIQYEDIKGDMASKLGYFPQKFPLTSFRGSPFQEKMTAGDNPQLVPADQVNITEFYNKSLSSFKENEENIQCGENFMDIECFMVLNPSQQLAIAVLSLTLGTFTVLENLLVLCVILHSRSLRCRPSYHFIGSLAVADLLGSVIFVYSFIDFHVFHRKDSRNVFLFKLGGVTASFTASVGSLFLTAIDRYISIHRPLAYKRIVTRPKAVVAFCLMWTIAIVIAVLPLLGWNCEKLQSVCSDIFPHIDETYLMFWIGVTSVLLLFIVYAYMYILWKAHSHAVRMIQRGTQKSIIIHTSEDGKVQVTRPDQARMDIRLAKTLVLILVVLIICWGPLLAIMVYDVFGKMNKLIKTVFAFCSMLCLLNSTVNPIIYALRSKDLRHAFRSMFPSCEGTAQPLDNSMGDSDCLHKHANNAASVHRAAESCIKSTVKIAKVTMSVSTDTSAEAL

Take “4-(((benzo[d][1,3]dioxol-5-ylmethyl)(quinoxalin-2-ylmethyl)amino)methyl)-N,N-diethylaniline [Compound 31]”: the Ki at human CB1 receptors turned out to be 1270 nM. In addition, at human CB2 receptors, the “SI: selectivity index for CB2, calculated as Ki(CB1)/Ki(CB2) ratio” value is 2 and the affinity, expressed as Ki, was 775 nM.
With `CCN(CC)c1ccc(CNCc2cc(OC)c(OC)c(OC)c2)cc1` [Compound 3, N,N-diethyl-4-(((3,4,5-trimethoxybenzyl)amino)methyl)aniline], the Ki on human CB2 receptors turned out to be 42300 nM.
Regarding `CCN(CC)c1ccc(CN(Cc2cc(OC)c(OC)c(OC)c2)S(=O)(=O)c2ccc(OC)cc2)cc1` [Compound 4, N-(4-(diethylamino)benzyl)-4-methoxy-N-(3,4,5-trimethoxybenzyl)benzenesulfonamide], at human CB1 receptors, the inhibition constant Ki is above 20000 nM and the “Ki (CB1)” value was “no CB1 binding affinity”. For the same compound, on human CB2 receptors, the “SI: selectivity index for CB2, calculated as Ki(CB1)/Ki(CB2) ratio” value is 50 and the Ki is 410 nM.
Take `CCN(CC)c1ccc(CN(Cc2cc(OC)c(OC)c(OC)c2)S(=O)(=O)c2cccc(C)c2)cc1` [Compound 5, N-(4-(diethylamino)benzyl)-3-methyl-N-(3,4,5-trimethoxybenzyl)benzenesulfonamide]: the figures for the inhibition constant Ki at human CB1 receptors and on human CB2 receptors were 732 nM and 291 nM, respectively. Moreover, the “SI: selectivity index for CB2, calculated as Ki(CB1)/Ki(CB2) ratio” value on human CB2 receptors is listed as 3.
`CCN(CC)c1ccc(CN(Cc2cc(OC)c(OC)c(OC)c2)S(=O)(=O)c2ccc(C)cc2)cc1` [Compound 6, N-(4-(diethylamino)benzyl)-4-methyl-N-(3,4,5-trimethoxybenzyl)benzenesulfonamide] displayed a Ki at human CB1 receptors of 774 nM. Further, on human CB2 receptors, the “SI: selectivity index for CB2, calculated as Ki(CB1)/Ki(CB2) ratio” value was 2 and the inhibition constant (Ki) was determined as 387 nM.
In the case of `CCN(CC)c1ccc(CN(Cc2cc(OC)c(OC)c(OC)c2)S(=O)(=O)c2ccccc2)cc1` [Compound 7, N-(4-(diethylamino)benzyl)-N-(3,4,5-trimethoxybenzyl)benzenesulfonamide], on human CB1 receptors, the inhibition constant Ki was above 20000 nM and the “Ki (CB1)” value is “no affinity”. Besides, at human CB2 receptors, the “SI: selectivity index for CB2, calculated as Ki(CB1)/Ki(CB2) ratio” value is recorded as 44 and the inhibition constant Ki stood at 453 nM.
As to `CCN(CC)c1ccc(CN(Cc2cc(OC)c(OC)c(OC)c2)S(=O)(=O)c2ccc(C(C)C)cc2)cc1` [Compound 8, N-(4-(diethylamino)benzyl)-4-isopropyl-N-(3,4,5-trimethoxybenzyl)benzenesulfonamide], the Ki amounted to 122 nM on human CB1 receptors and 230 nM on human CB2 receptors.
The like results for `CCN(CC)c1ccc(CN(Cc2cc(OC)c(OC)c(OC)c2)S(=O)(=O)c2ccc3ccccc3c2)cc1` [Compound 9, N-(4-(diethylamino)benzyl)-N-(3,4,5-trimethoxybenzyl)naphthalene-2-sulfonamide] were, in that order, 71 nM and 239 nM.
In the case of `CCN(CC)c1ccc(CN(Cc2cc(OC)c(OC)c(OC)c2)S(=O)(=O)c2ccc(-c3ccccc3)cc2)cc1` [Compound 10, N-(4-(diethylamino)benzyl)-N-(3,4,5-trimethoxybenzyl)-[1,1′-biphenyl]-4-sulfonamide], the inhibition constant (Ki) was above 20000 nM on human CB1 receptors and 322 nM on human CB2 receptors. For the same compound, on human CB2 receptors, the “SI: selectivity index for CB2, calculated as Ki(CB1)/Ki(CB2) ratio” value is 62.
For `CCN(CC)c1ccc(CN(Cc2cc(OC)c(OC)c(OC)c2)C(=O)c2cnc3ccccc3n2)cc1` [Compound 12, N-(4-(diethylamino)benzyl)-N-(3,4,5-trimethoxybenzyl)quinoxaline-2-carboxamide], in that order: 13000 nM, 249 nM and 52.
The like results for `CCN(CC)c1ccc(CN(Cc2cc(OC)c(OC)c(OC)c2)S(=O)(=O)c2ccc(OC(F)(F)F)cc2)cc1` [Compound 13, N-(4-(diethylamino)benzyl)-4-(trifluoromethoxy)-N-(3,4,5-trimethoxybenzyl)benzenesulfonamide] were, in that order, 1240 nM, 990 nM and 2.
For `CCN(CC)c1ccc(CN(Cc2cc(OC)c(OC)c(OC)c2)S(=O)(=O)c2ccccc2C)cc1` [Compound 14, N-(4-(diethylamino)benzyl)-2-methyl-N-(3,4,5-trimethoxybenzyl)benzenesulfonamide], in that order: 180 nM, 157 nM and 2.
Consider `CCN(CC)c1ccc(CN(Cc2cc(OC)c(OC)c(OC)c2)S(=O)(=O)c2cccs2)cc1` [Compound 16, N-(4-(diethylamino)benzyl)-N-(3,4,5-trimethoxybenzyl)thiophene-2-sulfonamide], for which, at human CB1 receptors, the inhibitory constant (Ki) is above 20000 nM. Besides, on human CB2 receptors, the “SI: selectivity index for CB2, calculated as Ki(CB1)/Ki(CB2) ratio” value was 32 and the Ki is 639 nM.
In turn, `CCN(CC)c1ccc(CN(Cc2cc(OC)c(OC)c(OC)c2)S(=O)(=O)c2ccc(OC)c(OC)c2)cc1` [Compound 17, N-(4-(diethylamino)benzyl)-3,4-dimethoxy-N-(3,4,5-trimethoxybenzyl)benzenesulfonamide] yielded an inhibition constant (Ki) on human CB2 receptors of 657 nM.
Still for that read-out and setting: in the case of `CCN(CC)c1ccc(CNCc2cccnc2)cc1` [Compound 20, N,N-diethyl-4-(((pyridin-3-ylmethyl)amino)methyl)aniline] it was above 20000 nM; in that of `CCN(CC)c1ccc(CN(Cc2cccnc2)C(=O)c2cccs2)cc1` [Compound 21, N-(4-(diethylamino)benzyl)-N-(pyridin-3-ylmethyl)thiophene-2-carboxamide], 1020 nM.
Still for that read-out and setting: the same measure for `CCN(CC)c1ccc(CN(Cc2cccnc2)C(=O)c2cnc3ccccc3n2)cc1` [Compound 22, N-(4-(diethylamino)benzyl)-N-(pyridin-3-ylmethyl)quinoxaline-2-carboxamide]: 1200 nM.
Regarding `CCN(CC)c1ccc(CN(Cc2cccnc2)S(=O)(=O)/C=C/c2ccccc2)cc1` [Compound 23, (E)-N-(4-(diethylamino)benzyl)-2-phenyl-N-(pyridin-3-ylmethyl)ethene-1-sulfonamide], the Ki amounted to 5460 nM on human CB1 receptors and 899 nM at human CB2 receptors. Also, the “SI: selectivity index for CB2, calculated as Ki(CB1)/Ki(CB2) ratio” value at human CB2 receptors is 6.
`CCN(CC)c1ccc(CNCc2ccc3c(c2)OCO3)cc1` [Compound 28, 4-(((benzo[d][1,3]dioxol-5-ylmethyl)amino)methyl)-N,N-diethylaniline]: at human CB2 receptors, the inhibition constant (Ki) is above 20000 nM.
The compound `CCN(CC)c1ccc(CN(Cc2ccc3c(c2)OCO3)S(=O)(=O)c2ccc3ccccc3c2)cc1` [Compound 33, N-(benzo[d][1,3]dioxol-5-ylmethyl)-N-(4-(diethylamino)benzyl)naphthalene-2-sulfonamide] came in with an inhibitory constant (Ki) at human CB2 receptors of 882 nM.
In the case of `CCN(CC)c1ccc(CN(Cc2ccc3c(c2)OCO3)S(=O)(=O)c2ccc(-c3ccccc3)cc2)cc1` [Compound 34, N-(benzo[d][1,3]dioxol-5-ylmethyl)-N-(4-(diethylamino)benzyl)-[1,1′-biphenyl]-4-sulfonamide], affinity at human CB2 receptors was put at a Ki of 2000 nM.
On the same count and under the same terms, in the case of `CCCCCNCc1ccc(N(CC)CC)cc1` [Compound 36, N,N-diethyl-4-((pentylamino)methyl)aniline] it was 40200 nM; in that of `CCCCCN(Cc1ccc(N(CC)CC)cc1)S(=O)(=O)c1ccc(-c2ccccc2)cc1` [Compound 42, N-(4-(diethylamino)benzyl)-N-pentyl-[1,1′-biphenyl]-4-sulfonamide], 3150 nM.

A word on the Ki: it is the dissociation constant of the complex between target and ligand, obtained from inhibition or displacement. Higher therefore signals a looser hold on the target.
